In the Deep4Chem optical property database:
Blank lines part the entries; values can stand above or below the compound they belong to.

Test: solvent given as SMILES

SMILES: CC(C)(C)c1ccc(C2=CC3=C(c4ccccc4)c4cc(-c5ccc(C(C)(C)C)cc5)c(-c5ccc(C(C)(C)C)cc5)n4[B-](F)(F)[N+]3=C2c2ccc(C(C)(C)C)cc2)cc1
emission maximum (in C1CCCCC1): 643 nm
emission maximum (in C1CCOC1): 649 nm
emission maximum (in CC#N): 647 nm
emission maximum (in Cc1ccccc1): 649 nm
emission maximum (in ClCCl): 649 nm

SMILES: CCCC(=O)c1c(OCOC)c(OCOC)c(C(=O)CCC)c2c1OCO2
emission maximum (in CC#N): 503 nm

SMILES: CC1(C)c2ccccc2N(c2ccc3c(c2)c2cc(N4c5ccccc5C(C)(C)c5ccccc54)ccc2c2nc4ccccc4nc32)c2ccccc21
emission maximum (in Cc1ccccc1): 553 nm
emission maximum (in c1cc(-c2cccc(-n3c4ccccc4c4ccccc43)c2)cc(-n2c3ccccc3c3ccccc32)c1): 565 nm

SMILES: c1ccc(N(c2ccccc2)c2c3ccccc3cc3ccccc23)cc1
emission maximum (in Cc1ccccc1): 489 nm

SMILES: c1cc2c3cc1c1ccc4c(c1)c1cc(ccc1[C@]15OCCO[C@]41OCCO5)c1ccc4c(c1)c1cc(ccc1[C@]15OCCO[C@]41OCCO5)c1ccc(c3c1)[C@]13OCCO[C@]21OCCO3
emission maximum (in Cc1ccccc1): 343 nm

SMILES: CC(=O)Nc1ccc2c(c1)c(=O)c1cc(NC(C)=O)ccc1n2CCCCCC(=O)O
emission maximum (in O): 463 nm

SMILES: CC1(C)CC(=O)c2cc(F)c(F)cc2N1
emission maximum (in CC#N): 435 nm
emission maximum (in CCO): 472 nm

SMILES: c1ccc2c(c1)CCc1ccccc1N2c1c2ccccc2c(N2c3ccccc3CCc3ccccc32)c2ccccc12
emission maximum (in Cc1ccccc1): 525 nm

SMILES: C#Cc1ccc2ccc3oc(=O)cc(C)c3c2c1
emission maximum (in CCO): 403 nm

SMILES: F[B-]1(F)OC(c2ccccc2)=Nc2sc(-c3ccccc3)n[n+]21
emission maximum (in C1CCOC1): 402 nm
emission maximum (in CC#N): 415 nm
emission maximum (in CCO): 409 nm
emission maximum (in CCOC(C)=O): 411 nm
emission maximum (in CN(C)C=O): 419 nm
emission maximum (in Cc1ccccc1): 410 nm
emission maximum (in ClC(Cl)Cl): 413 nm
emission maximum (in ClCCl): 412 nm

SMILES: O=C1/C(=C\c2ccc3oc4ccccc4c3c2)S(=O)(=O)c2ccccc21
emission maximum (in C1CCOC1): 437 nm
emission maximum (in C1COCCO1): 436 nm
emission maximum (in CC#N): 480 nm
emission maximum (in CC(C)=O): 458 nm
emission maximum (in CCOC(C)=O): 429 nm
emission maximum (in CN(C)C=O): 445 nm
emission maximum (in CO): 439 nm
emission maximum (in CS(C)=O): 449 nm
emission maximum (in Cc1ccccc1): 430 nm
emission maximum (in ClC(Cl)Cl): 441 nm
emission maximum (in ClCCl): 438 nm

SMILES: O=[N+]([O-])c1ccc(-n2c3ccccc3c3c2c2ccccc2n3-c2ccccc2)cc1
emission maximum (in Cc1ccccc1): 660 nm

SMILES: CCN(CC)c1cc2oc3cc(N(CC)CC)c(F)cc3c(=O)c2cc1F
emission maximum (in CCO): 452 nm

SMILES: c1ccc(-c2nc(-c3ccc(-c4ccc(N(c5ccccc5)c5ccccc5)cc4)cn3)oc2-c2ccccc2)cc1
emission maximum (in C1CCOC1): 458 nm
emission maximum (in C1COCCO1): 454 nm
emission maximum (in CC#N): 507 nm
emission maximum (in CC(C)=O): 495 nm
emission maximum (in CC(C)OC(C)C): 434 nm
emission maximum (in CCCCCC): 399 nm
emission maximum (in CCCCOCCCC): 431 nm
emission maximum (in CCN(CC)CC): 422 nm
emission maximum (in CCOC(C)=O): 456 nm
emission maximum (in CCOCC): 440 nm
emission maximum (in Cc1ccccc1): 435 nm
emission maximum (in c1ccccc1): 438 nm

SMILES: CCCCN1C(=O)c2cccc3cccc(c23)C1=O
emission maximum (in Cc1ccccc1): 392 nm

SMILES: Cc1cc(C#Cc2ccccc2)c2ccc3c(C#Cc4ccccc4)cc(C#Cc4ccccc4)c4ccc1c2c43
emission maximum (in CS(C)=O): 461 nm
emission maximum (in ClC(Cl)(Cl)Cl): 460 nm

SMILES: CCCCCCCCCCCCOc1ccc(C2=C3C(=O)N(CC(OCC)OCC)C(c4ccc(OCCCCCCCCCCCC)c(OCCCCCCCCCCCC)c4)=C3C(=O)N2CC(OCC)OCC)cc1OCCCCCCCCCCCC
emission maximum (in ClC(Cl)Cl): 541 nm

SMILES: Cc1ccc(C)cc1
emission maximum (in C1CCCCC1): 292.06 nm

SMILES: COc1ccc2n1[B-](F)(F)[N+]1=C(c3ccccc3)C=CC1=C2c1ccc(C)cc1
emission maximum (in C1CCCCC1): 553 nm
emission maximum (in C1CCOC1): 555 nm
emission maximum (in C1COCCO1): 556 nm
emission maximum (in CCOC(C)=O): 552 nm
emission maximum (in CO): 550 nm
emission maximum (in Cc1ccccc1): 558 nm
emission maximum (in ClC(Cl)Cl): 557 nm

SMILES: CC(C)(C)c1ccc2c(c1)c1cc(C(C)(C)C)ccc1n2-c1ccccc1-c1nc(-c2ccccc2-n2c3ccc(C(C)(C)C)cc3c3cc(C(C)(C)C)ccc32)nc(-c2ccccc2P(=O)(c2ccccc2)c2ccccc2)n1
emission maximum (in C1CCOC1): 512.54 nm
emission maximum (in CC#N): 546.04 nm
emission maximum (in CC(C)=O): 533.4 nm
emission maximum (in CN(C)C=O): 546.04 nm
emission maximum (in Cc1ccccc1): 493.22 nm
emission maximum (in ClC(Cl)Cl): 516.24 nm
emission maximum (in ClCCl): 529.29 nm
emission maximum (in O=P(c1ccccc1)(c1ccccc1)c1ccccc1Oc1ccccc1P(=O)(c1ccccc1)c1ccccc1): 500 nm

SMILES: COc1ccc(C2=[N+]3C(=Nc4c(-c5ccccc5-c5ccc(C(C)(C)C)cc5)cc(-c5ccc(OC)cc5)n4[B-]3(F)F)c3c2c2cc(C(C)(C)C)ccc2c2ccccc32)cc1
emission maximum (in Cc1ccccc1): 723 nm

Now from value to compound, other results behind:

emission maximum (in C1CCOC1): 594 nm
SMILES: O=C(c1ccc(N2c3ccccc3Oc3ccccc32)cc1)c1ccc2sc3ccccc3c2c1
emission maximum (in c1ccc2c(c1)c1ccccc1n2-c1ccc(-c2ccc(-n3c4ccccc4c4ccccc43)cc2)cc1): 524 nm

emission maximum (in ClCCl): 741 nm
SMILES: CC(C)(C)c1cc(-c2c3cc(c(-c4cc(C(C)(C)C)cc(C(C)(C)C)c4)c4ccc([nH]4)c(-c4ccc([N+](=O)[O-])cc4)c4nc(c(-c5ccc([N+](=O)[O-])cc5)c5ccc2[nH]5)C=C4)N=C3)cc(C(C)(C)C)c1

emission maximum (in ClC(Cl)Cl): 570 nm
SMILES: F[B-]1(F)n2c(cc(Br)c2Br)C(c2ccccc2)=C2C=C(Br)C(Br)=[N+]21

emission maximum (in ClCCl): 563 nm
SMILES: Clc1ccc(N2c3sc4ccccc4c3Sc3sc4ccccc4c32)cc1

emission maximum (in ClC(Cl)Cl): 388 nm
SMILES: COc1ccc(-c2ccc(-c3c4c(nc5ccccc35)-c3cc5c(cc3CC4)-c3nc4ccccc4c(-c4ccc(-c6ccc(OC)cc6)cc4)c3CC5)cc2)cc1

emission maximum (in ClC(Cl)Cl): 618 nm
SMILES: CCCN1c2ccccc2Sc2cc(/C=C\c3cc(=O)oc4ccccc34)ccc21

emission maximum (in C1CCOC1): 406 nm
SMILES: CC(C)(C)c1ccc(-c2c(-c3ccc(-n4c5ccccc5c5ccccc54)cc3)c(C#N)c(-c3ccc(-n4c5ccccc5c5ccccc54)cc3)c(-c3ccc(C(C)(C)C)cc3)c2-c2ccc(C(C)(C)C)cc2)cc1

emission maximum (in ClCCl): 436 nm
SMILES: Fc1ccc(C#Cc2nc(C#Cc3ccc(F)cc3)c(C#Cc3ccc(F)cc3)c(C#Cc3ccc(F)cc3)c2C#Cc2ccc(F)cc2)cc1

emission maximum (in ClCCl): 466 nm
SMILES: CCCCCCCCCCOc1ccc(C#Cc2cc3c(C#Cc4ccc(OCCCCCCCCCC)cc4)c(C#Cc4ccc(OCCCCCCCCCC)cc4)c4cc(C#Cc5ccc(OCCCCCCCCCC)cc5)cc5c(C#Cc6ccc(OCCCCCCCCCC)cc6)c(C#Cc6ccc(OCCCCCCCCCC)cc6)c(c2)c3c45)cc1

emission maximum (in ClC(Cl)Cl): 403 nm
SMILES: CSc1ccc2cc(C#N)c3ccc4ccccc4c3c2c1

emission maximum (in CCO): 426.44 nm
SMILES: c1ccc2cc3cnccc3cc2c1

emission maximum (in ClCCl): 442 nm
SMILES: FC(F)(F)c1ccc(-n2c(-c3ccc(N(c4ccc(-c5ccc(N(c6ccc(-c7nc8c9ccccc9c9ccccc9c8n7-c7ccc(C(F)(F)F)cc7)cc6)c6ccc(-c7nc8c9ccccc9c9ccccc9c8n7-c7ccc(C(F)(F)F)cc7)cc6)cc5)cc4)c4ccc(-c5nc6c7ccccc7c7ccccc7c6n5-c5ccc(C(F)(F)F)cc5)cc4)cc3)nc3c4ccccc4c4ccccc4c32)cc1

emission maximum (in ClC(Cl)Cl): 485 nm
SMILES: CC(C)c1cccc(C(C)C)c1-n1c(=O)c2ccc3c4ccc5c(=O)n(-c6c(C(C)C)cccc6C(C)C)c(=O)c6cc7c(-c8ccccn8)nc8cc(c1=O)c2c3c8c7c4c56

emission maximum (in CO): 688 nm
emission maximum (in ClC(Cl)Cl): 714 nm
SMILES: CCN1C(=CC2=C([O-])C(=Cc3[se]c4ccccc4[n+]3CC)C2=O)[Se]c2ccccc21

emission maximum (in ClCCl): 551 nm
SMILES: c1ccc(C2=C(c3ccccc3)c3cccc4c3c(cc3nc5c(-c6ccccc6)ccc(-c6ccccc6)c5nc34)O2)cc1

emission maximum (in C1CCOC1): 410 nm
emission maximum (in CCCCCC): 425 nm
emission maximum (in CCO): 408 nm
emission maximum (in CS(C)=O): 409 nm
SMILES: Cc1ccc(-c2cc3ccccc3oc2=O)cc1

emission maximum (in ClCCl): 475 nm
SMILES: COC(=O)c1[nH]c(-c2ccccc2)c2nnc3ccc(OC)cc3c12

emission maximum (in O): 603 nm
SMILES: CC[n+]1c(-c2ccccc2)c2cc(-n3cccc3)ccc2c2ccc(N)cc21

emission maximum (in ClCCl): 419 nm
SMILES: c1cc(-c2c3ccccc3c(-c3ccc4ccccc4c3)c3ccccc23)cc(-n2c3ccccc3c3ccccc32)c1

emission maximum (in C1CCOC1): 552 nm
SMILES: N#C/C(=C\c1ccc(C=C(c2ccccc2)c2ccccc2)cc1)c1ccc([N+](=O)[O-])cc1

emission maximum (in ClCCl): 655 nm
SMILES: CCCCC1C(=O)c2cc(Oc3ccc(C(C)(C)C)cc3)c3c4c(Oc5ccc(C(C)(C)C)cc5)cc5c6c(cc(Oc7ccc(C(C)(C)C)cc7)c(c7c(Oc8ccc(C(C)(C)C)cc8)cc(c2c37)C1=O)c64)C1=C(C5=O)c2ccc3ccccc3[n+]2[B-](F)(F)O1 (stereo not given)

emission maximum (in ClC(Cl)Cl): 460 nm
SMILES: CCN(CC)c1ccc2cc(-c3cn4cc5ccccc5cc4n3)c(=O)oc2c1

emission maximum (in ClCCl): 463 nm
SMILES: COc1cc(/C=C/c2ncc(-c3ccncc3)o2)cc(OC)c1OC

emission maximum (in C1CCOC1): 487 nm
emission maximum (in CC#N): 535 nm
emission maximum (in CCCCCCC): 433 nm
emission maximum (in CS(C)=O): 537 nm
emission maximum (in ClCCl): 543 nm
SMILES: C(=C\c1cnccn1)/c1ccc(N(c2ccccc2)c2ccccc2)cc1

emission maximum (in C1COCCO1): 732 nm
SMILES: COc1ccc(/C=C/C2=CC(/C=C/c3ccc(OC)cc3)=[N+]3C2=C(c2ccc(-c4ccc5ccccc5n4)s2)c2c(/C=C/c4ccc(OC)cc4)cc(/C=C/c4ccc(OC)cc4)n2[B-]3(F)F)cc1

emission maximum (in ClCCl): 401 nm
SMILES: CCOC(=O)c1c(-c2cc3ccccc3oc2=O)nn(-c2ccccc2)c1C(=O)OCC

emission maximum (in C1CCOC1): 454 nm
SMILES: CCCCCOc1ccc2c(c1)c1ccc3cccc4c5cc(OC)cc6oc(=O)c2c(c65)c1c34

emission maximum (in CO): 775 nm
emission maximum (in O): 769 nm
SMILES: CC[N+]1=C(/C=C/C=C/C=C/C=C2/N(CCCCCC(=O)O)c3ccccc3C2(C)C)C(C)(C)c2cc(S(=O)(=O)[O-])ccc21

emission maximum (in ClCCl): 686 nm
SMILES: COc1ccc(C2=C3C(/C=C/c4cc(OC)c(OC)c(OC)c4)=C(C=O)C(C)=[N+]3[B-](F)(F)n3c(/C=C/c4cc(OC)c(OC)c(OC)c4)c(C=O)c(C=Cc4cc(OC)c(OC)c(OC)c4)c32)cc1

emission maximum (in C1CCCCC1): 640 nm
emission maximum (in CCOC(C)=O): 679 nm
SMILES: CC1=[N+]2C(=C(c3ccccc3C)c3ccc(C)n3[B-]2(F)F)C=C1c1cc2n(c1)[B-](F)(F)[N+]1=CC=CC1=C2c1c(C)cc(C)cc1C
